Laboratory results published in patent US20160017054A1, “Spermidine/Spermine N1 - Acetyltransferase Antibodies As Anti-Cancer Drug Compounds” (BIOMARK TECHNOLOGIES INC., priority 2013, published 2016).

Tested on: human tumor cell lines U2-OS, HeLa, Malme-3M, PC-3 and HEK293
Assay: Relative cell viability (percent confluency) during incubation with spermidine
Assay type: cell-based
Settings: spermidine 22 μM to 550 μM

NCCCCNCCCN [spermidine, Spermidine]
relative cell viability, expressed as percent confluency (SSAT non-expressing cell lines (U2-OS and HeLa)): highest | relative cell viability, expressed as percent confluency (SSAT over-expressing cell lines (Malme-M3 and PC-3)): lowest
